Test results from patent US20120142771A1, “BIPHENYLACETAMIDE DERIVATIVE” (Dainippon Sumitomo Pharma Co., Ltd., priority 2008, published 2012).
Where two headings read alike, the source gives them in different places.

Experiments:
[1] = system: maximum electroshock seizure (MES) model; test: Maximum electroshock seizure (MES) model test; type: in vivo, mice; details: for responders at 100 mg/kg / responders at 50 mg/kg: Mus musculus, po, 1 h, inhibition of hind limb extension; for anticonvulsant action in maximum electroshock seizure (MES) model test: mice, oral 50 or 100 mg/kg, 1 hour after administration
Procedure, shortened: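 Tonic hind-limb extension was elicited by corneal electroshock (60 Hz, 25 mA, 0.2 s) 1 h after oral dosing. Test compounds were given at 50 or 100 mg/kg to groups of 3 male Slc: ddY mice (20-30 g), vehicle controls receiving 0.5% tragacanth or 0.5% methylcellulose solution.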

[2] = system: subcutaneously pentetrazol-injected model (scPTZ); test: Subcutaneously pentetrazol-injected model (scPTZ) test; type: in vivo, mice; details: for responders at 100 mg/kg / responders at 50 mg/kg: Mus musculus, po, 1 h; for anticonvulsant action in subcutaneously pentetrazol-injected model (scPTZ) test: mice, oral 50 or 100 mg/kg
Procedure, shortened: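 Pentetrazol (85 mg/kg, s.c.) was injected one hour after oral test compound at 50 or 100 mg/kg in groups of three male Slc:ddY mice weighing 20-30 g; vehicle controls got 0.5% tragacanth or 0.5% methylcellulose.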

[3] = 100 mg/kg oral, Slc: ddY male mice, 3 per group, electrical stimulation 1 hour after administration, read-out: MES (positive number/tested number) (converted)
[4] = 100 mg/kg oral, Slc: ddY male mice, 3 per group, pentetrazol 85 mg/kg s.c. after 1 hour, observed 30 minutes for clonic convulsion, read-out: scPTZ (positive number/tested number) (converted)
[5] = 50 mg/kg oral, Slc: ddY male mice, 3 per group, electrical stimulation 1 hour after administration, read-out: MES (positive number/tested number) (converted)
[6] = 50 mg/kg oral, Slc: ddY male mice, 3 per group, pentetrazol 85 mg/kg s.c. after 1 hour, observed 30 minutes for clonic convulsion, read-out: scPTZ (positive number/tested number) (converted)
[7] = pentetrazol 85 mg/kg s.c. after 1 hour
[8] = read-out: MES (positive number/tested number), 50 mg/kg oral, Slc: ddY male mice, 3 per group, electrical stimulation 1 hour after administration
[9] = read-out: MES (positive number/tested number), 100 mg/kg oral, Slc: ddY male mice, 3 per group, electrical stimulation 1 hour after administration
[10] = read-out: scPTZ (positive number/tested number), 50 mg/kg oral, Slc: ddY male mice, 3 per group, pentetrazol 85 mg/kg s.c. after 1 hour, observed 30 minutes for clonic convulsion
[11] = read-out: scPTZ (positive number/tested number), 100 mg/kg oral, Slc: ddY male mice, 3 per group, pentetrazol 85 mg/kg s.c. after 1 hour, observed 30 minutes for clonic convulsion

| SMILES | responders at 100 mg/kg [1, 3] | responders at 100 mg/kg [2, 4] | responders at 50 mg/kg [1, 5] | responders at 50 mg/kg [2, 6] | further results |
| --- | --- | --- | --- | --- | --- |
| CNC(=O)Cc1cc(F)ccc1-c1ccc(Cl)cc1 [Example 132] | 100% | 0% | – | – | – |
| NC(=O)Cc1cc(F)ccc1-c1cccc(F)c1 [Example 133] | 100% | 33.3% | – | – | – |
| CNC(=O)Cc1cc(F)ccc1-c1cccc(F)c1 [Example 134] | 100% | 0% | – | – | – |
| NC(=O)Cc1cc(F)ccc1-c1ccc(C(F)(F)F)cc1 [Example 135] | 100% | 0% | – | – | – |
| CNC(=O)Cc1cc(F)ccc1-c1ccc(C(F)(F)F)cc1 [Example 136] | 100% | 0% | – | – | – |
| NC(=O)Cc1cc(C(F)(F)F)ccc1-c1ccc(Cl)cc1 [Example 137] | 0% | 66.7% | – | – | – |
| CNC(=O)Cc1cc(C(F)(F)F)ccc1-c1ccc(Cl)cc1 [Example 138] | 0% | 66.7% | – | – | – |
| NC(=O)Cc1cc(Cl)ccc1-c1cccc(F)c1 [Example 139] | 66.7% | 33.3% | – | – | – |
| NC(=O)Cc1c(F)cccc1-c1cccc(F)c1 [Example 140, 2-(3,3′-difluorobiphenyl-2-yl)acetamide] | 100% | 66.7% | 100% | 66.7% | anticonvulsant action in maximum electroshock seizure (MES) model test [1]: anticonvulsant action was observed; anticonvulsant action in subcutaneously pentetrazol-injected model (scPTZ) test [2, 7]: anticonvulsant action was observed |
| CNC(=O)Cc1c(F)cccc1-c1cccc(F)c1 [Example 141] | 66.7% | 0% | – | – | – |
| NC(=O)Cc1cc(Cl)ccc1-c1ccc(C(F)(F)F)cc1 [Example 142, 2-[4-chloro-4′-(trifluoromethyl)biphenyl-2-yl]acetamide] | 66.7% | 66.7% | 33.3% | 100% | – |
| CNC(=O)Cc1cc(Cl)ccc1-c1ccc(C(F)(F)F)cc1 [Example 143] | 0% | 100% | – | – | – |
| NC(=O)Cc1cc(C(F)(F)F)ccc1-c1cccc(F)c1 [Example 144] | 33.3% | 66.7% | – | – | – |
| CC(C)(C)NC(=O)Cc1ccccc1-c1ccccc1F [Example 145] | 0% | 33.3% | – | – | – |
| CNC(=O)Cc1cc(F)c(F)cc1-c1cccc(F)c1 [Example 148] | 0% | 33.3% | – | – | – |
| NC(=O)Cc1ccc(C(F)(F)F)cc1-c1cccc(F)c1 [Example 149, 2-[3′-fluoro-5-(trifluoromethyl)biphenyl-2-yl]acetamide] | 66.7% | 66.7% | 33.3% | 0% | – |
| NC(=O)Cc1ccc(F)cc1-c1cc(Cl)cc(Cl)c1 [Example 150, 2-(3′,5′-dichloro-5-fluorobiphenyl-2-yl)acetamide] | 100% | 100% | 100% | 33.3% | – |
| CNC(=O)Cc1ccc(F)cc1-c1cc(Cl)cc(Cl)c1 [Example 151] | 66.7% | 0% | – | – | – |
| NC(=O)Cc1ccccc1-c1cc(F)ccc1F [Example 152, 2-(2′,5′-difluorobiphenyl-2-yl)acetamide] | 100% | 100% | 100% | 66.7% | anticonvulsant action in maximum electroshock seizure (MES) model test [1]: anticonvulsant action was observed; anticonvulsant action in subcutaneously pentetrazol-injected model (scPTZ) test [2, 7]: anticonvulsant action was observed |
| NC(=O)Cc1ccccc1-c1cc(F)cc(F)c1 [Example 153, 2-(3′,5′-difluorobiphenyl-2-yl)acetamide] | 66.7% | 100% | 0% | 0% | – |
| NC(=O)Cc1ccccc1-c1ccc(F)cc1F [Example 154] | 100% | 33.3% | 33.3% | – | – |

| SMILES | responders at 100 mg/kg [1, 3] | responders at 100 mg/kg [2, 4] | responders at 50 mg/kg [1, 5] | responders at 50 mg/kg [2, 6] | further results |
| --- | --- | --- | --- | --- | --- |
| NC(=O)C1(c2ccccc2-c2ccccc2)CC1 [Example 155] | 0% | 66.7% | – | 0% | – |
| CNC(=O)C1(c2ccccc2-c2ccccc2)CC1 [Example 156] | 100% | 33.3% | 0% | – | – |
| CNC(=O)C1(c2ccccc2-c2ccccc2F)CC1 [Example 157, 1-(2′-fluorobiphenyl-2-yl)-N-methyl-cyclopropane-carboxamide] | 100% | 66.7% | 33.3% | 66.7% | – |
| NC(=O)C1(c2ccccc2-c2cccc(F)c2)CC1 [Example 158] | 0% | 66.7% | – | – | – |
| CNC(=O)C1(c2ccccc2-c2cccc(F)c2)CC1 [Example 159, 1-(3′-fluorobiphenyl-2-yl)-N-methyl-cyclopropane-carboxamide] | 66.7% | 66.7% | 33.3% | 33.3% | – |
| NC(=O)C(F)c1ccccc1-c1cccc(F)c1 (centres unmarked) [Example 160, 2-fluoro-2-(3′-fluorobiphenyl-2-yl)acetamide] | 66.7% | 100% | 33.3% | 66.7% | – |
| CNC(=O)C(F)c1ccccc1-c1cccc(F)c1 (centres unmarked) [Example 161] | 66.7% | 0% | – | – | – |
| NC(=O)C(F)c1ccccc1-c1ccccc1 (centres unmarked) [Example 162, 2-(biphenyl-2-yl)-2-fluoroacetamide] | – | – | – | – | responders at 50 mg/kg [1, 8]: 100%; responders at 100 mg/kg [1, 9]: 100%; anticonvulsant action in maximum electroshock seizure (MES) model test [1]: anticonvulsant action was observed; responders at 50 mg/kg [2, 10]: 100%; responders at 100 mg/kg [2, 11]: 100%; anticonvulsant action in subcutaneously pentetrazol-injected model (scPTZ) test [2, 7]: anticonvulsant action was observed |
| CNC(=O)C(F)c1ccccc1-c1ccccc1 (centres unmarked) [Example 163] | 100% | 0% | 33.3% | – | – |
| NC(=O)C(F)c1ccccc1-c1ccccc1F (centres unmarked) [Example 164, 2-fluoro-2-(2′-fluorobiphenyl-2-yl)acetamide] | 100% | 33.3% | 100% | – | – |
| CNC(=O)C(F)c1ccccc1-c1ccccc1F (centres unmarked) [Example 165, 2-fluoro-2-(2′-fluorobiphenyl-2-yl)-N-methylacetamide] | 100% | 33.3% | 66.7% | – | – |
| CNC(=O)C(F)c1ccccc1-c1ccc(F)cc1 (centres unmarked) [Example 166, 2-fluoro-2-(4′-fluorobiphenyl-2-yl)-N-methylacetamide] | 100% | 66.7% | 66.7% | 33.3% | – |
| NC(=O)C(F)c1ccccc1-c1cccc(Cl)c1 (centres unmarked) [Example 167, 2-(3′-chlorobiphenyl-2-yl)-2-fluoroacetamide] | – | – | – | – | responders at 50 mg/kg [1, 8]: 33.3%; responders at 100 mg/kg [1, 9]: 100%; responders at 50 mg/kg [2, 10]: 66.7%; responders at 100 mg/kg [2, 11]: 100% |
| CNC(=O)C(F)(F)c1ccccc1-c1ccccc1 [Example 168] | 100% | 33.3% | 33.3% | – | – |
| NC(=O)C(F)(F)c1ccccc1-c1ccccc1F [Example 169] | 100% | 33.3% | – | – | – |
| NC(=O)C(F)(F)c1ccccc1-c1cccc(F)c1 [Example 170, 2,2-difluoro-2-(3′-fluorobiphenyl-2-yl)acetamide] | 100% | 66.7% | 0% | 33.3% | – |
| NC(=O)C(F)(F)c1ccccc1-c1cccc(Cl)c1 [Example 171, 2-(3′-chlorobiphenyl-2-yl)-2,2-difluoroacetamide] | 100% | 100% | 100% | 33.3% | – |
| O=C(Cc1ccccc1-c1ccccc1F)NC1CC1 [Example 172] | 100% | 0% | – | – | – |
| O=C(Cc1ccccc1-c1ccccc1F)NCC1CC1 [Example 173] | 33.3% | 0% | – | – | – |
| NC(=O)C(F)(F)c1ccccc1-c1ccccc1 [Example 174, 2-(biphenyl-2-yl)-2,2-difluoroacetamide] | 100% | 66.7% | 100% | 33.3% | – |
